According to patent US20240000814A1, “TREATING ALCOHOL USE DISORDER USING PSILOCYBIN” (New York University, priority 2022, published 2024):

How the values were obtained:
Type in all cases: in vivo, human
AUD patients [1] = assay: Double-blind randomized trial of psilocybin-assisted treatment of AUD: drinking outcomes by timeline followback; details: for % of Heavy drinking days (PHDD), mean: 32-week double-blind follow-up (weeks 5-36) after first dose, oral psilocybin 25 mg/70 kg then 25-40 mg/70 kg or diphenhydramine 50 mg then 50-100 mg at weeks 4 and 8, with psychotherapy
Description: Design: In this double-blind trial, participants were offered 12 weeks of manualized psychotherapy and were randomly assigned to receive psilocybin vs. diphenhydramine during two day-long medication sessions at week 4 and 8. Outcomes were assessed over the 32-week double-blind period following the first dose of study medication.
Interventions: Study medications were psilocybin 25 mg/70 kg vs. diphenhydramine 50 mg (first session) and psilocybin 25-40 mg/70 kg vs. diphenhydramine 50-100 mg (second session). Psychotherapy included motivational enhancement therapy and cognitive-behavioral therapy.
Qualifying participants were assessed at screening, baseline (week 0), and weeks 4, 5, 8, 9, 12, 24, and 36. They were randomly assigned in a 1:1 ratio to receive either psilocybin or diphenhydramine, administered in two eight-hour sessions at weeks 4 and 8. All participants who completed the double-blind observation period (weeks 5-36) and still met safety criteria were offered an open-label psilocybin session at week 38, including four additional psychotherapy sessions and assessment for an additional 18 weeks. Participants received up to a total of $560 for completing assessments in the course of the trial, but were not reimbursed for attending the therapy and medication sessions.
All participants were offered a total of 12 psychotherapy sessions from a team of two therapists including a licensed psychiatrist: 4 before the first medication session, 4 between the first and second medication sessions, and 4 in the month following the second medication session. The psychotherapy, described in detail in a separate publication,^41 included motivational interviewing and cognitive behavioral therapy for AUD as well as material designed to help the participants to manage and make use of the psychoactive effects of the study medication.
Study medication was taken orally in a single opaque capsule of unvarying appearance and weight. Psilocybin doses were weight-based to control for participant body weight, which ranged from 49.0 to 116.1 (mean=78.3, SD=15.6) kg. Doses for the first session were psilocybin 25 mg/70 kg or diphenhydramine 50 mg. Participants received an increased dose in the second session if there were no dose-limiting adverse events and they agreed to the increase. The increased dose of psilocybin was 30 mg/70 kg if the participant's total score on the Pahnke-Richards Mystical Experience Questionnaire (MEQ)^42 was ≥0.6 in the first session (indicating a robust subjective response to the 25 mg/70 kg dose), or 40 mg/70 kg if the MEQ total score in the first session was <0.6. The increased dose of diphenhydramine was 100 mg, regardless of subjective response.
Study medication was administered at approximately 9 AM, after which participants were required to stay in the session room with the therapists for at least 8 hours (except for bathroom breaks). During the session, participants were encouraged to lie on a couch wearing eyeshades and headphones providing a standardized playlist of music. Medications were available in the session room to treat hypertension, severe anxiety, or psychotic symptoms.
The pre-specified primary drinking outcome was the percentage of heavy drinking days (PH DD) during […], assessed at weeks 8, 12, 24, and 36 using the timeline followback, a reliable and valid calendar-based method which is the gold standard outcome for AUD clinical trials.^43-47 Secondary outcomes included percent drinking days (PDD), average drinks per day (DPD), and dichotomous outcomes: abstinence, lack of heavy drinking days, and reduction in World Health Organization risk level^48 by one, two, or three levels. Hair or fingernail samples were collected at week 24 and assayed for ethylglucuronide (EtG) concentration to confirm self-reported abstinence. The Short Index of Problems (SIP-2R)^49 was used to assess drinking-related problems at baseline and weeks 12, 24, and 36. […]

AUD patients [2] = assay: Safety: blood pressure, heart rate and adverse events in the trial
Description: Blood pressure and heart rate were assessed at 30- to 60-minute intervals during the first 6 hours of each medication session. Adverse events were solicited at each post-screening assessment.
Blood pressure and heart rate treatment contrasts were based on MMRM with fixed, categorical effects of treatment and assessment, a treatment-by-assessment interaction, and a fixed covariate (value of each outcome prior to drug administration). All adverse events occurring after informed consent were MedDRA-coded and tabulated, and prevalence within treatment groups (proportion of participants affected) was compared using Fisher's exact tests.

AUD patients [3] = assay: Subjective effects of study medication, Mystical Experience Questionnaire (MEQ)
Description: Subjective effects of psilocybin vs. diphenhydramine were assessed using the States of Consciousness Questionnaire,^42 containing the 43-item Mystical Experience Questionnaire (MEQ), completed immediately after each medication session.
MEQ scores for the first and second medication sessions were computed and contrasted by group (psilocybin vs. diphenhydramine) using t-tests for independent samples.

[4] = 32-week double-blind follow-up (weeks 5-36)
[5] = 32 weeks following the first administration of study medication
[6] = treatment-emergent, within 48 hours of study drug administration

CN(C)CCOC(c1ccccc1)c1ccccc1 [Diphenhydramine, diphenhydramine]
% of Drinking days (PDD), mean (AUD patients [1]; [4]): 42.83% | Drinks per day (DPD), mean (AUD patients [1]; [4]): 2.26 Drinks per day | % of Heavy drinking days (PHDD), mean (AUD patients [1]): 23.57% | % of Heavy drinking days (PHDD), mean (AUD patients [1]; listed as diphenhydramine): 23.6% | Abstinence, % of participants (AUD patients [1]; Weeks 5-36): (8.9) % | Abstinence, No. of participants (AUD patients [1]; Weeks 5-36): 4 | No heavy drinking, % of participants (AUD patients [1]; Weeks 5-36): (11.1) % | No heavy drinking, No. of participants (AUD patients [1]; Weeks 5-36): 5 | WHO risk level Decrease 1, % of participants (AUD patients [1]; Weeks 5-36): (71.1) % | WHO risk level Decrease 2, % of participants (AUD patients [1]; Weeks 5-36): (40.0) % | WHO risk level Decrease 2, No. of participants (AUD patients [1]; Weeks 5-36): 18 | WHO risk level Decrease 3, % of participants (AUD patients [1]; Weeks 5-36): (13.3) % | WHO risk level Decrease 3, No. of participants (AUD patients [1]; Weeks 5-36): 6 | WHO risk level Decrease 1, No. of participants (AUD patients [1]; Weeks 5-36, relative to 12 weeks prior to screening): 32 | Abstinence, % of participants (AUD patients [1]; Weeks 33-36): (24.4) % | Abstinence, No. of participants (AUD patients [1]; Weeks 33-36): 11 | No heavy drinking, % of participants (AUD patients [1]; Weeks 33-36): (40.0) % | No heavy drinking, No. of participants (AUD patients [1]; Weeks 33-36): 18 | WHO risk level Decrease 1, % of participants (AUD patients [1]; Weeks 33-36): (64.4) % | WHO risk level Decrease 1, No. of participants (AUD patients [1]; Weeks 33-36): 29 | WHO risk level Decrease 2, % of participants (AUD patients [1]; Weeks 33-36): (40.0) % | WHO risk level Decrease 2, No. of participants (AUD patients [1]; Weeks 33-36): 18 | WHO risk level Decrease 3, % of participants (AUD patients [1]; Weeks 33-36): (17.8) % | WHO risk level Decrease 3, No. of participants (AUD patients [1]; Weeks 33-36): 8 | Adverse events reported, number (AUD patients [2]; [5]): 85 | Serious adverse events (AUD patients [2]; [5]): Three | Headaches, participants affected / treated (AUD patients [2]; [6]): 2/45 | Headaches, percent of participants (AUD patients [2]; [6]): 4.4% | Mean MEQ score (AUD patients [3]; Session 1, psilocybin 25 mg/70 kg or diphenhydramine 50 mg): 0.10 (SD=0.13) | Mean MEQ score (AUD patients [3]; Session 2, psilocybin 25-40 mg/70 kg or diphenhydramine 50-100 mg): 0.11 (SD=0.16)
